Drawing on article PMC4278210, “Sargassopenillines A–G, 6,6-Spiroketals from the Alga-Derived Fungi Penicillium thomii and Penicillium lividum” (Marine Drugs, 2014), this text covers IC50 and inhibition for 6 molecules.

Each structure is given as a SMILES string.

Data set [1] in a line: Radical scavenging activity against DPPH. How it is done: The experiments were performed as previously reported.
(In general: DPPH is a stable violet radical that fades when it is reduced.)

In data set [2] the test system is oncogenic nuclear factor AP-1. The data set can be described thus: Basal AP-1-dependent transcriptional activity, luciferase reporter in JB6 Cl41 cells. The class given is cell-based. Particulars: Mus musculus; JB6 Cl41 cells with AP-1 luciferase reporter; after 12 h of treatment; read-out: inhibition of transcriptional activity of AP-1, IC50. As for the experimental part: The effect of compounds 1–3 and 7 on the basal AP-1-dependent transcriptional activity was also studied using JB6 Cl41 cells stably expressing a luciferase reporter gene controlled by an AP-1-DNA binding sequence.
The effects of the compounds on the basal transcriptional activities of AP-1 were evaluated using the JB6 Cl41 cell line stably expressing a luciferase reporter gene controlled by an AP-1-DNA binding sequence. The experiments were performed as previously reported with slight modifications.
For orientation: Reporter assays use an easily measured gene product as a stand-in for the process of interest.

Data set [3] has as its system CD-1 murine peritoneal macrophages. The experiment in a line: Macrophage adhesion test. The class given is cell-based. The following applies: Mus musculus, 10 µM (non-toxic concentration), 2 h incubation at 37 °C. How it is done:
Mice were sacrificed by cervical dislocation. Peritoneal macrophages were isolated using standard procedures. For this purpose, 3 mL of PBS (pH 7.4) was immediately injected into the peritoneal cavity and the body intensively palpated for 1–2 min. Then, the peritoneal fluid was aspirated with a syringe and transferred to Petri dishes. Petri dishes with the fluid were incubated at 37 °C for 1–2 h to facilitate attachment of peritoneal macrophages to the dish. Then, a cell monolayer was triply flushed with PBS (pH 7.4) to delete attendant lymphocytes, fibroblasts and erythrocytes. Subsequently, macrophages were removed from the surface of the dishes with a scraper and flow of a saline solution, and then placed on an ice bath until use. The working concentration of cells was usually 1–2 × 10^6 cells/mL. The number of adhered cells was estimated according to standard method with some modifications.
Twenty […] of test compound solutions (at non-toxic concentration 10 μM) and […] of macrophage suspension were added to 96-well flat-bottom plates. After incubation for 2 h at 37 °C, cells were fixed with 70% ethanol solution ([…] per well) for 15 min at RT. […] Finally, the SDS/trypan blue solution absorbance was detected spectrophotometrically at 590 nm using a plate reader. The percentage of adhered cells compared to the control level of Trypan blue absorbance was calculated. […]

Data set [4] in a line: Cytotoxicity towards CD-1 mouse splenocytes. The class given is cell-based. The following applies: assayed up to 100 µM, read-out: cytotoxicity against splenocytes IC50. How it is done:
The effect of the compounds on the cells viability was evaluated using the MTS test, which is based on the reduction of MTS into its formazan product by alive cells. Cytotoxicity towards CD-I mouse splenocytes was determined according to Freshney. Hemolytic activity towards CD-I mouse erythrocytes was determined as previously described.

In general, IC50 refers to the concentration that inhibits the measured activity by half. The molecule `O=C1O[C@H]([C@@H](O)CO)C(O)=C1O` [Ascorbic acid, reference compound] registered a half-inhibitory concentration (IC50) in data set [1] of 21.3 µM.

In the case of `Cc1c(O)cc2c(c1O)CO[C@@]1(O[C@@H](C)CC[C@@H]1O)[C@@H]2O` [compound 1, sargassopenilline A], the IC50 in data set [1] was 100 µM.

Consider `CC(=O)OC1C2=C(CO[C@@]13O[C@@H](C)C[C@H](O)[C@@H]3OC(C)=O)C(=O)C(C)(OC(C)=O)C(=O)C2` (stereo partly shown) [compound 3, sargassopenilline C], for which the IC50 in data set [2] worked out at 15 µM.

Usually inhibition stands for the drop in the measured response relative to a control, in per cent. Lower therefore signals little suppression. For the molecule `CC(=O)OC1C2=C(CO[C@@]13O[C@@H](C)CC[C@@H]3OC(C)=O)C(=O)C(C)=C(O)C2=O` (stereo partly shown) [compound 4, sargassopenilline D], in data set [3], the inhibition at 10 µM lay in the range of 30 to 40%.

For `C[C@H]1C[C@H](O)C[C@@]2(CC3=C(CO2)C(=O)[C@](C)(O)[C@H](O)C3)O1` [compound 5, sargassopenilline E], the half-maximal inhibitory concentration (IC50) stood at 38 µM in data set [4] and 50 µM in data set [1].

Regarding `CC(=O)O[C@H]1CC[C@H](C)O[C@@]12OCC1=C(C[C@@H](O)[C@@](C)(O)C1=O)C2O` (stereo partly shown) [compound 6, sargassopenilline F], the inhibition at 10 µM in data set [3] was 30 to 40%.
